Ends that are not written are not given here.
Experiments:
[1] = system: S. aureus ATCC BAA-2313 (MRSA SCCmec type XI); assay: MIC, broth dilution; type: cell-based, Staphylococcus aureus; conditions: Table 5; STIP3 variants, highest concentration 100 μg/mL
Procedure, shortened: (§1)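 Peptides (95% purity) were serially diluted 2-fold and mixed with bacteria diluted to OD 6×10^−4 in cation-adjusted Mueller Hinton broth. Standing cultures were incubated overnight at 37° C. MIC was the lowest peptide concentration with no observed growth.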

S. aureus ATCC 29213 = assay: MIC, broth dilution; type: cell-based, Staphylococcus aureus; conditions: Table 5; STIP3 variants, highest concentration 100 μg/mL
Procedure, shortened: as §1

[2] = system: S. aureus ATCC 33592 (MRSA SCCmec type III); assay: MIC, broth dilution; type: cell-based, Staphylococcus aureus; conditions: Table 5; STIP3 variants, highest concentration 100 μg/mL
Procedure, shortened: as §1

[3] = system: S. aureus ATCC BAA-41 (MRSA SCCmec type II); assay: MIC, broth dilution; type: cell-based, Staphylococcus aureus; conditions: Table 5; STIP3 variants, highest concentration 100 μg/mL
Procedure, shortened: as §1

[4] = system: S. aureus ATCC BAA-42 (MRSA SCCmec type VI); assay: MIC, broth dilution; type: cell-based, Staphylococcus aureus; conditions: Table 5; STIP3 variants, highest concentration 100 μg/mL
Procedure, shortened: as §1

[5] = system: S. aureus ATCC BAA-44 (MRSA SCCmec type I); assay: MIC, broth dilution; type: cell-based, Staphylococcus aureus; conditions: Table 5; STIP3 variants, highest concentration 100 μg/mL
Procedure, shortened: as §1

[6] = system: S. aureus ATCC BAA-1683 (MRSA SCCmec type IV); assay: MIC, broth dilution; type: cell-based, Staphylococcus aureus; conditions: Table 5; STIP3 variants, highest concentration 100 μg/mL
Procedure, shortened: as §1

[7] = system: S. aureus ATCC BAA-2094 (MRSA SCCmec type V); assay: MIC, broth dilution; type: cell-based, Staphylococcus aureus; conditions: Table 5; STIP3 variants, highest concentration 100 μg/mL
Procedure, shortened: as §1

Kodamae ohmeri AR 396 = assay: MIC, YPD broth, CDC and FDA AR Candida isolate panel; type: cell-based
Procedure, shortened: (§2)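 Broth microdilution in YPD; yeast diluted to optical density […] and mixed with 2-fold serial dilutions of peptide (95% purity), water control. Standing cultures incubated overnight at 37 °C.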

[8] = system: Candida haemulonii AR 395; assay: as above; type: cell-based; conditions: Table 9 below the line: only 200 or 100 μg/mL tested; values reported as 100 are ≤100 μg/mL
Procedure, shortened: as §2

[9] = system: Saccharomyces cerevisiae AR 399; assay: as above; type: cell-based
Procedure, shortened: as §2

[10] = system: Candida duobushaemulonii AR 391; assay: as above; type: cell-based
Procedure, shortened: as §2

[11] = system: Saccharomyces cerevisiae AR 400; assay: as above; type: cell-based
Procedure, shortened: as §2

[12] = system: Candida haemulonii AR 393; assay: as above; type: cell-based
Procedure, shortened: as §2

[13] = system: Candida duobushaemulonii AR 394; assay: as above; type: cell-based
Procedure, shortened: as §2

[14] = system: Candida lusitaniae AR 398; assay: as above; type: cell-based
Procedure, shortened: as §2

[15] = system: Candida duobushaemulonii AR 392; assay: as above; type: cell-based
Procedure, shortened: as §2

Candida krusei AR 397 = assay: as above; type: cell-based
Procedure, shortened: as §2

[16] = system: Mannheimia haemolytica ATCC 33393; assay: MIC, broth dilution; type: cell-based; conditions: Table 11; highest concentration 25 μg/mL
Procedure, shortened: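 Read-out is the lowest peptide concentration showing no growth after an overnight standing culture at 37 °C. Two-fold serial dilutions of 95%-pure peptide were tested against M. haemolytica ATCC 33393 at OD 6×10^−4 in cation-adjusted MH broth.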

C. albicans MYA-2876 = assay: MIC, YPD broth; type: cell-based, Candida albicans; conditions: Table 8
Procedure, shortened: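 Yeast cells were diluted in YPD broth, and 180 μl aliquots were mixed with 20 μl of peptide from 2-fold serial dilutions in flat-bottom 96-well microtitre plates. Wells receiving 20 μl sterile water served as controls. After standing incubation overnight at 37° C, the MIC was taken as the lowest peptide concentration with no visible microbial growth.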

C. albicans Y537 = assay: MIC, YPD broth; type: cell-based, Candida albicans; conditions: Table 8
[17] = Table 9 below the line: only 200 or 100 μg/mL tested, values reported as 100 are ≤100 μg/mL
[18] = Table 9 top part: titrations from 1.56 to 100 μg/mL

Row | Substance | MIC S. aureus ATCC BAA 2313 (XI) [1] | MIC S. aureus ATCC 29213 (S. aureus ATCC 29213) | MIC S. aureus ATCC 33592 (III) [2] | MIC S. aureus ATCC BAA 41 (II) [3] | MIC S. aureus ATCC BAA 42 (VI) [4] | MIC S. aureus ATCC BAA 44 (I) [5] | MIC S. aureus ATCC BAA 1683 (IV) [6] | MIC S. aureus ATCC BAA 2094 (V) [7] | MIC (μg/mL) Kodamae ohmeri AR 396 (Kodamae ohmeri AR 396; [17]) | MIC (μg/mL) Saccharomyces cerevisiae AR 399 [9, 17] | MIC (μg/mL) Candida duobushaemulonii AR 391 [10, 17] | MIC (μg/mL) Saccharomyces cerevisiae AR 400 [11, 17] | MIC (μg/mL) Candida haemulonii AR 393 [12, 17] | MIC (μg/mL) Candida duobushaemulonii AR 394 [13, 17] | MIC (μg/mL) Candida lusitaniae AR 398 [14, 17] | MIC (μg/mL) Candida duobushaemulonii AR 392 [15, 17] | MIC (μg/mL) Candida krusei AR 397 (Candida krusei AR 397; [17]) | MIC (μg/mL) M. haemolytica [16] | MIC C. albicans MYA-2876 (C. albicans MYA-2876) | MIC C. albicans Y537 (C. albicans Y537) | other results
1 | TVGGLVKWILDTVKKFA-NH2 [STIP3-27, TVGGLVKWILDTVKKFA-NH2] | 50 µg/mL | 50 µg/mL | 50 µg/mL | 25 µg/mL | 25 µg/mL | 25 µg/mL | 25 µg/mL | 25 µg/mL | ≤ 100 µg/mL | ≤ 100 µg/mL | > (values below the line were determined using two concentrations of peptide 200 or 100 μg/mL) | ≤ 100 µg/mL | > (values below the line were determined using two concentrations of peptide 200 or 100 μg/mL) | > (values below the line were determined using two concentrations of peptide 200 or 100 μg/mL) | ≤ 100 µg/mL | > (values below the line were determined using two concentrations of peptide 200 or 100 μg/mL) | ≤ 100 µg/mL | 25 µg/mL | 25 µg/mL | 50 µg/mL | MIC (μg/mL) Candida haemulonii AR 395 [8]: > (values below the line were determined using two concentrations of peptide 200 or 100 μg/mL)
2 | TVKALVKWILKTVAKFA [STIP3-19, TVKALVKWILKTVAKFA] | 25 µg/mL | 50 µg/mL | 25 µg/mL | 50 µg/mL | 50 µg/mL | 25 µg/mL | 25 µg/mL | 25 µg/mL |  |  |  |  |  |  |  |  |  | 12.5 µg/mL | > (> symbol indicates that no inhibition was observed at the highest concentration of peptide tested: 100 μg/mL) | > (> symbol indicates that no inhibition was observed at the highest concentration of peptide tested: 100 μg/mL) | MIC (μg/mL) Kodamae ohmeri AR 396 (Kodamae ohmeri AR 396; [18]): > (MIC values reported at the top of the table (above the double line) are based on titrations from 1.56 to 100 μg/mL); MIC (μg/mL) Saccharomyces cerevisiae AR 399 [9, 18]: 100 µg/mL; MIC (μg/mL) Candida duobushaemulonii AR 391 [10, 18]: 50 µg/mL; MIC (μg/mL) Saccharomyces cerevisiae AR 400 [11, 18]: 50 µg/mL; MIC (μg/mL) Candida duobushaemulonii AR 394 [13, 18]: 100 µg/mL; MIC (μg/mL) Candida lusitaniae AR 398 [14, 18]: 50 µg/mL; MIC (μg/mL) Candida duobushaemulonii AR 392 [15, 18]: 100 µg/mL; MIC (μg/mL) Candida krusei AR 397 (Candida krusei AR 397; [18]): 100 µg/mL
3 | TVKALVKWILKTVAKFW-NH2 [STIP3-31, TVKALVKWILKTVAKFW-NH2] | 25 µg/mL | 25 µg/mL | 25 µg/mL | 25 µg/mL | 50 µg/mL | 25 µg/mL | 25 µg/mL | 25 µg/mL | > (values below the line were determined using two concentrations of peptide 200 or 100 μg/mL) | > (values below the line were determined using two concentrations of peptide 200 or 100 μg/mL) | > (values below the line were determined using two concentrations of peptide 200 or 100 μg/mL) | > (values below the line were determined using two concentrations of peptide 200 or 100 μg/mL) | > (values below the line were determined using two concentrations of peptide 200 or 100 μg/mL) | > (values below the line were determined using two concentrations of peptide 200 or 100 μg/mL) | > (values below the line were determined using two concentrations of peptide 200 or 100 μg/mL) | > (values below the line were determined using two concentrations of peptide 200 or 100 μg/mL) | > (values below the line were determined using two concentrations of peptide 200 or 100 μg/mL) | 6.25 µg/mL | > (> symbol indicates that no inhibition was observed at the highest concentration of peptide tested: 100 μg/mL) | > (> symbol indicates that no inhibition was observed at the highest concentration of peptide tested: 100 μg/mL) | 
4 | TVKGLVKWILNVVKKFA-NH2 [STIP3-30, TVKGLVKWILNVVKKFA-NH2] | 25 µg/mL | 12.5 µg/mL | 12.5 µg/mL | 25 µg/mL | 25 µg/mL | 12.5 µg/mL | 12.5 µg/mL | 25 µg/mL |  |  |  |  |  |  |  |  |  | 12.5 µg/mL | 25 µg/mL | 50 µg/mL | MIC (μg/mL) Kodamae ohmeri AR 396 (Kodamae ohmeri AR 396; [18]): 25 µg/mL; MIC (μg/mL) Saccharomyces cerevisiae AR 399 [9, 18]: 25 µg/mL; MIC (μg/mL) Candida duobushaemulonii AR 391 [10, 18]: 12.5 µg/mL; MIC (μg/mL) Saccharomyces cerevisiae AR 400 [11, 18]: 12.5 µg/mL; MIC (μg/mL) Candida haemulonii AR 393 [12, 18]: 100 µg/mL; MIC (μg/mL) Candida duobushaemulonii AR 394 [13, 18]: 25 µg/mL; MIC (μg/mL) Candida lusitaniae AR 398 [14, 18]: 6.25 µg/mL; MIC (μg/mL) Candida duobushaemulonii AR 392 [15, 18]: 25 µg/mL; MIC (μg/mL) Candida krusei AR 397 (Candida krusei AR 397; [18]): 12.5 µg/mL

From US12370235B2, “Synthetic, non-natural antimicrobial peptides inspired by Staphylococcus auricularis delta toxin” (University of Saskatchewan, priority 2021, dated 2025)
